Results taken from the NIST ThermoML archive (doi:10.1016/j.jct.2014.06.004).
± gives the expanded uncertainty stated by the source.

Tests used:
[1] = xn = mol fraction of the nth substance listed; details: 100 kPa, Liquid; for mass density: Vibrating tube method; for speed of sound: Frequency=3 MHz, Sing-around technique in a fixed-path interferometer
[2] = refractive index (Na D-line) (dimensionless); xn = mol fraction of the nth substance listed; details: 100 kPa, Liquid, Standard Abbe refractometry

SMILES: CCCCCCC(=O)O [heptanoic acid] + CCCC(=O)O
- mass density ([1]; 308.15 K, x1 = 0.6006): 916 ± 0.3 kg/m3
- mass density ([1]; 308.15 K, x1 = 0.7049): 912.8 ± 0.3 kg/m3
- mass density ([1]; 308.15 K, x1 = 0.805): 910 ± 0.3 kg/m3
- mass density ([1]; 308.15 K, x1 = 0.9052): 907.4 ± 0.3 kg/m3
- mass density ([1]; 308.15 K, x1 = 0.9575): 906.1 ± 0.3 kg/m3
- mass density ([1]; 308.15 K, x1 = 1): 905.1 ± 0.3 kg/m3
- speed of sound ([1]; 313.15 K, x1 = 0.0559): 1129 ± 2 m/s
- speed of sound ([1]; 313.15 K, x1 = 0.1059): 1136 ± 2 m/s
- speed of sound ([1]; 313.15 K, x1 = 0.2061): 1148 ± 2 m/s
- speed of sound ([1]; 313.15 K, x1 = 0.3087): 1161 ± 2 m/s
- speed of sound ([1]; 313.15 K, x1 = 0.4037): 1171 ± 2 m/s
- speed of sound ([1]; 313.15 K, x1 = 0.5037): 1182 ± 2 m/s
- speed of sound ([1]; 313.15 K, x1 = 0.6006): 1191 ± 2 m/s
- speed of sound ([1]; 313.15 K, x1 = 0.7049): 1201 ± 2 m/s
- speed of sound ([1]; 313.15 K, x1 = 0.805): 1209 ± 2 m/s
- speed of sound ([1]; 313.15 K, x1 = 0.9052): 1218 ± 2 m/s
- speed of sound ([1]; 313.15 K, x1 = 0.9575): 1222 ± 2 m/s
- speed of sound ([1]; 313.15 K, x1 = 1): 1225 ± 2 m/s
- mass density ([1]; 313.15 K, x1 = 0.0559): 934.6 ± 0.3 kg/m3
- mass density ([1]; 313.15 K, x1 = 0.1059): 931.9 ± 0.3 kg/m3
- mass density ([1]; 313.15 K, x1 = 0.2061): 926.8 ± 0.3 kg/m3
- mass density ([1]; 313.15 K, x1 = 0.3087): 922.3 ± 0.3 kg/m3
- mass density ([1]; 313.15 K, x1 = 0.4037): 918.5 ± 0.3 kg/m3
- mass density ([1]; 313.15 K, x1 = 0.5037): 914.8 ± 0.3 kg/m3
- mass density ([1]; 313.15 K, x1 = 0.6006): 911.6 ± 0.3 kg/m3
- mass density ([1]; 313.15 K, x1 = 0.7049): 908.4 ± 0.3 kg/m3
- mass density ([1]; 313.15 K, x1 = 0.805): 905.7 ± 0.3 kg/m3
- mass density ([1]; 313.15 K, x1 = 0.9052): 903.1 ± 0.3 kg/m3
- mass density ([1]; 313.15 K, x1 = 0.9575): 901.9 ± 0.3 kg/m3
- mass density ([1]; 313.15 K, x1 = 1): 900.9 ± 0.3 kg/m3
- refractive index ([2]; 293.15 K, x1 = 0.0559): 1.4005 ± 0.0005
- refractive index ([2]; 293.15 K, x1 = 0.1059): 1.4024 ± 0.0005
- refractive index ([2]; 293.15 K, x1 = 0.2061): 1.4054 ± 0.0005
- refractive index ([2]; 293.15 K, x1 = 0.3087): 1.4084 ± 0.0005
- refractive index ([2]; 293.15 K, x1 = 0.4037): 1.4109 ± 0.0005
- refractive index ([2]; 293.15 K, x1 = 0.5037): 1.4134 ± 0.0005
- refractive index ([2]; 293.15 K, x1 = 0.6006): 1.4157 ± 0.0005
- refractive index ([2]; 293.15 K, x1 = 0.7049): 1.4179 ± 0.0005
- refractive index ([2]; 293.15 K, x1 = 0.805): 1.4199 ± 0.0005
- refractive index ([2]; 293.15 K, x1 = 0.9052): 1.4217 ± 0.0005
- refractive index ([2]; 293.15 K, x1 = 0.9575): 1.4226 ± 0.0005
- refractive index ([2]; 293.15 K, x1 = 1): 1.4234 ± 0.0005
- refractive index ([2]; 298.15 K, x1 = 0.0559): 1.3984 ± 0.0005
- refractive index ([2]; 298.15 K, x1 = 0.1059): 1.4001 ± 0.0005
- refractive index ([2]; 298.15 K, x1 = 0.2061): 1.4033 ± 0.0005
- refractive index ([2]; 298.15 K, x1 = 0.3087): 1.4063 ± 0.0005
- refractive index ([2]; 298.15 K, x1 = 0.4037): 1.4089 ± 0.0005
- refractive index ([2]; 298.15 K, x1 = 0.5037): 1.4114 ± 0.0005
- refractive index ([2]; 298.15 K, x1 = 0.6006): 1.4136 ± 0.0005
- refractive index ([2]; 298.15 K, x1 = 0.7049): 1.4159 ± 0.0005
- refractive index ([2]; 298.15 K, x1 = 0.805): 1.4179 ± 0.0005
- refractive index ([2]; 298.15 K, x1 = 0.9052): 1.4197 ± 0.0005
- refractive index ([2]; 298.15 K, x1 = 0.9575): 1.4207 ± 0.0005
- refractive index ([2]; 298.15 K, x1 = 1): 1.4214 ± 0.0005
- refractive index ([2]; 303.15 K, x1 = 0.0559): 1.3963 ± 0.0005
- refractive index ([2]; 303.15 K, x1 = 0.1059): 1.398 ± 0.0005
- refractive index ([2]; 303.15 K, x1 = 0.2061): 1.4012 ± 0.0005
- refractive index ([2]; 303.15 K, x1 = 0.3087): 1.4042 ± 0.0005
- refractive index ([2]; 303.15 K, x1 = 0.4037): 1.4068 ± 0.0005
- refractive index ([2]; 303.15 K, x1 = 0.5037): 1.4093 ± 0.0005
- refractive index ([2]; 303.15 K, x1 = 0.6006): 1.4116 ± 0.0005
- refractive index ([2]; 303.15 K, x1 = 0.7049): 1.4138 ± 0.0005
- refractive index ([2]; 303.15 K, x1 = 0.805): 1.4158 ± 0.0005
- refractive index ([2]; 303.15 K, x1 = 0.9052): 1.4177 ± 0.0005
- refractive index ([2]; 303.15 K, x1 = 0.9575): 1.4186 ± 0.0005
- refractive index ([2]; 303.15 K, x1 = 1): 1.4194 ± 0.0005
- refractive index ([2]; 308.15 K, x1 = 0.0559): 1.3942 ± 0.0005
- refractive index ([2]; 308.15 K, x1 = 0.1059): 1.3958 ± 0.0005
- refractive index ([2]; 308.15 K, x1 = 0.2061): 1.3991 ± 0.0005
- refractive index ([2]; 308.15 K, x1 = 0.3087): 1.4021 ± 0.0005
- refractive index ([2]; 308.15 K, x1 = 0.4037): 1.4047 ± 0.0005
- refractive index ([2]; 308.15 K, x1 = 0.5037): 1.4072 ± 0.0005
- refractive index ([2]; 308.15 K, x1 = 0.6006): 1.4095 ± 0.0005
- refractive index ([2]; 308.15 K, x1 = 0.7049): 1.4117 ± 0.0005
- refractive index ([2]; 308.15 K, x1 = 0.805): 1.4138 ± 0.0005
- refractive index ([2]; 308.15 K, x1 = 0.9052): 1.4157 ± 0.0005
- refractive index ([2]; 308.15 K, x1 = 0.9575): 1.4166 ± 0.0005
- refractive index ([2]; 308.15 K, x1 = 1): 1.4173 ± 0.0005
- refractive index ([2]; 313.15 K, x1 = 0.0559): 1.392 ± 0.0005
- refractive index ([2]; 313.15 K, x1 = 0.1059): 1.3937 ± 0.0005
- refractive index ([2]; 313.15 K, x1 = 0.2061): 1.397 ± 0.0005
- refractive index ([2]; 313.15 K, x1 = 0.3087): 1.4 ± 0.0005
- refractive index ([2]; 313.15 K, x1 = 0.4037): 1.4026 ± 0.0005
- refractive index ([2]; 313.15 K, x1 = 0.5037): 1.4051 ± 0.0005
- refractive index ([2]; 313.15 K, x1 = 0.6006): 1.4074 ± 0.0005
- refractive index ([2]; 313.15 K, x1 = 0.7049): 1.4097 ± 0.0005
- refractive index ([2]; 313.15 K, x1 = 0.805): 1.4117 ± 0.0005
- refractive index ([2]; 313.15 K, x1 = 0.9052): 1.4136 ± 0.0005
- refractive index ([2]; 313.15 K, x1 = 0.9575): 1.4146 ± 0.0005
- refractive index ([2]; 313.15 K, x1 = 1): 1.4153 ± 0.0005
